Earlier results, collected in US8278478B2, “Process for the synthesis of hydrochloride salt of N-fatty acylsubstituted amino acid ethyl esters” (priority 2009, dated 2012).

Conditions: at 20° C.

solubility in water: greater than 247 g/kg
SMILES: CCCCCCCCCCCC(=O)N[C@@H](CCCNC(=N)N)C(=O)OCC.Cl [Ethyl lauroyl arginate, ethyl-Nα-lauroyl-L-arginate HCl]
